These results are taken from US20260102417A1, “COMPOSITIONS FOR THE TREATMENT AND PREVENTION OF CANCER” (Keyzell Holding S.L., priority 2022, published 2026).

The subject of data set [1] is B16F10 cells (mouse melanoma model). The data set can be described thus: Mouse melanoma model: B16F10 cells subcutaneously in C57BL/6J female mice. It counts as in vivo. Particulars: FIG. 11, treatments administered for 7-9 days, 30 mg/kg per Table 2. An excerpt:
For in vivo studies, the drugs fosaprepitant dimeglumine salt (CAS No 265121-04-8, Selleck Chemicals), Cerenia® (Maropitant citrate injectable solution; Zoetis US), InVivoMAb Anti-mouse CTLA-4 (CD152) (BE0032, Bio cell), InVivoMAb Anti-mouse PD-1 (CD279) (BE0146, Bio cell) and Rat IgG2a k isotype (ref BE0089) were used.
B16F10 cells (1×10^6 per mouse) were subcutaneously injected into the right flank of C57BL/6J female mice (Charles River) with matrigel (Matrigel Membrane Matrix, Corning) at 50% v/v. Tumour growth was evaluated every 2/3 days. Animal vital parameters were monitored daily. When the tumours reached an average volume of 100-150 mm^3, mice were randomised into cohorts of 6 animals and treatments were administered for 7-9 days. Groups and regimens for each experiment are described in Table 2. Animals of the control group were dosed with equal volume of vehicle. Animals were euthanized according to institutional guidelines and tumour samples were excised. Tumours were snap-frozen in OCT medium (Sakura Tissue Tek) or fixed in PFA and embedded in paraffin. Several internal organs were also excised and fixed in PFA for future studies.

Data set [2] has as its system a range of provoked cancers and tumours. To be noted: immunocompromised nude mice; 10-80 mg/kg per day, up to 28 days; cited from earlier work.
For data set [3], the system named is cell lines of Table 1 (3LL, 4T1, B16F10, CT26WT, PTEN, RT112, MCF7 cells). Description: MTT cell viability (cytotoxicity) assay in tumour cell lines, FIGS. 1-9. It counts as cell-based, mouse, rat and human. Particulars: cell viability after 24 hours or 48 hours. The method, then:
21 Cell lines of three different species (mouse, rat and human) were used in this study (Table 1). All of them were maintained in culture in their respective culture media (Gibco, Thermo Fisher Scientific) supplemented with 10% fetal bovine serum (FBS) (Gibco, Thermo Fisher Scientific), 2 mM L-Glutamine (Sigma-Aldrich, Merk), and Peni-Strep (50 U/ml and […]; Gibco, Thermo Fisher Scientific) in a humidified incubator at 37° C. and 5% CO2.
The cytotoxicity of the drugs in culture was evaluated using the 3-(4,5-Dimethyl-2-thiazolyl)-2,5-diphenyl-2H-tetrazolium bromide (MTT) reduction assay. The assay assesses cell viability through the indirect measurement of the activity of reductases that convert yellow soluble MTT into purple insoluble formazan salts. As MTT can only be reduced when these enzymes are active, the reaction is used as an indicator of the cell metabolic competence and, therefore, of viability.
A variable number of cells (depending on the cell line) were seeded in 96 multi-well plates and grown during 24 Hours Cell Viability. The following day the culture medium was aspirated and fresh culture medium with the drug dissolved was added to the wells. After 24 Hours Cell Viability or 48 Hours Cell Viability cell viability was measurement by adding 10 μl of a 5 mg/ml MTT solution (M5655; Sigma-Aldrich) and 100 μl of a Hcl 0.01M-SDS 10% solution 4 hours later. After 24 Hours Cell Viability, the absorbance was measured at 595 nm, using a multi-well plate reader (iMark, Bio-rad).

The test system of data set [4] is osteoclastic osteosarcoma clinical stage IV. The data set can be described thus: Compassionate use of aprepitant in a patient with osteosarcoma. The data set is classed as in vivo, human. The method, then:
On Dec. 9, 2022 the patient was approved for compassionate use of aprepitant at a dose of 4200 mg orally divided into 3 doses (the total daily dose being 4200 mg) along with ifosfamide and etoposide as a fourth line of treatment. Close clinical surveillance of the patient was initiated to monitor quality of life, functional status and manifestation of adverse reactions to treatment, as well as periodic serological surveillance and measurement of response to treatment by imaging studies using the RECIST 1.1 criteria.

The test system of data set [5] is osteosarcoma cell line, MG-63. To be noted: immunocompromised nude mice; injected weekly at 80 mg/kg; cited from earlier work.
The mark [6] stands for this setting: Feb. 6, 2023, aprepitant 4200 mg per day with ifosfamide and etoposide.
[7] abbreviates: PET/CT Jan. 9, 2023, aprepitant 4200 mg per day with ifosfamide and etoposide.
The mark [8] stands for this setting: aprepitant 4200 mg per day with ifosfamide and etoposide.

Entries after “also recorded” stand apart in the source; their conditions may differ.

For the compound `COc1ccc(C(C)(C)C)cc1CN[C@H]1C2CCN(CC2)[C@H]1C(c1ccccc1)c1ccccc1` [Maropitant], the tumoral growth entry in data set [1] is given as “reduces tumoral growth”.
`C[C@@H](O[C@H]1OCCN(Cc2nc(=O)[nH][nH]2)[C@H]1c1ccc(F)cc1)c1cc(C(F)(F)F)cc(C(F)(F)F)c1` [aprepitant, 5-[[(2R, 3S)-2-[(1R)-1-[3,5-bis(trifluoromethyl)phenyl]ethoxy]-3-(4-fluorophenyl)-4-morpholinyl]methyl]-1,2-dihydro3H-1,2,4-triazol-3-one]: the “effect on tumour size / growth” value in data set [2] is listed as “somewhat effective; also recorded: slows the growth of the tumours without any net reduction in the tumour sizes”. The “anti-cancer effects in vitro (cell viability, MTT)” value (from here on “anti-cancer effects in vitro”) in data set [3] is “exhibited anti-cancer effects”. Further, in data set [4] (setting [6]), the left upper nodule was 21 mm; the “pulmonary nodule in left lower lobe” value was 16.5 mm; the “pulmonary nodule in left lower nodule” value came out at 10 mm; the “size of bilateral pulmonary nodules and masses of right predominance” value is recorded as “slight increase in the size”. In data set [4] (setting [7]), the “largest of two basal nodules, left lung” value is reported as 20 mm; the “nodule in the left upper lower lobe” value was found to be 16 mm; the “nodules in the posterior apical segment, left lung” value is on record as 21 mm. For the same compound, the “diameter of solid nodule, right pleura, hilar in the middle lobe” value in data set [4] (PET/CT Jan. 9, 2023, aprepitant 4200 mg per day with ifosfamide and etoposide since Dec. 9, 2022) is recorded as 42 mm. Besides, the “response according to RECIST 1.1 criteria, clinical and serological surveillance” value in data set [4] (aprepitant 4200 mg per day orally in 3 doses with ifosfamide and etoposide, from Dec. 9, 2022 to Feb. 15, 2023) is on record as “stable disease-like response”. In addition, in data set [4] (setting [8]), the Karnofsky was found to be 70%, the “impact on the patient compared with the expected course of the disease” value is reported as “positive impact” and the “symptomatology by the Edmonton scale” value is on record as “no increase in symptoms”. For the same compound, the ECOG functional status in data set [4] (aprepitant 4200 mg per day with ifosfamide and etoposide, since the start of follow-up) is recorded as 1. For the same compound, the “EORTC QLQ-C30 overall score (quality of life)” value in data set [4] (aprepitant 4200 mg per day with ifosfamide and etoposide, since the start of therapy) is given as 50%. Besides, the tolerance entry in data set [4] (aprepitant 4200 mg per day with ifosfamide and etoposide, with supportive treatment) is reported as “adequate tolerance”.
For `CNC[C@H](O)[C@@H](O)[C@H](O)[C@H](O)CO.CNC[C@H](O)[C@@H](O)[C@H](O)[C@H](O)CO.C[C@@H](O[C@H]1OCCN(Cc2nc(=O)n(P(=O)(O)O)[nH]2)[C@H]1c1ccc(F)cc1)c1cc(C(F)(F)F)cc(C(F)(F)F)c1` [fosaprepitant-dimeglumine, 1-Deoxy-1-(methylamino)-D-glucitol[3-[[(2R,3S)-2-[(1R)-1-[3,5-bis(trifluoromethyl)phenyl]ethoxy]-3-(4-fluorophenyl)-4-morpholinyl]methyl]-2,5-dihydro-5-oxo-1H-1,2,4 triazol-1-yl]phosphonate (2:1) (salt)], the tumoral growth entry in data set [1] is listed as “reduces tumoral growth”.
On to `C[C@@H](O[C@H]1OCCN(Cc2nc(O)n(P(=O)(O)O)n2)[C@H]1c1ccc(F)cc1)c1cc(C(F)(F)F)cc(C(F)(F)F)c1` [fosaprepitant], for which the “anti-cancer effects in vitro” value in data set [3] is recorded as “exhibited anti-cancer effects”. Moreover, the “therapeutic efficacy against MG-63 xenograft” value in data set [5] was “some therapeutic efficacy”.
In the case of `Cc1ccccc1-c1cc(N2CCN(C)CC2)ncc1N(C)C(=O)C(C)(C)c1cc(C(F)(F)F)cc(C(F)(F)F)c1` [netupitant], in data set [3], the “anti-cancer effects in vitro” value is “exhibited anti-cancer effects”.
